# Earlier results, collected in patent US12458645B2, “Pediatric powder for oral suspension containing antiviral agent and method for the preparation thereof” (PHARMATHEN S.A., priority 2014, dated 2025).
# Structures can show the parent of a compound that is named as a salt.
# How the values were obtained:
# [1] = in words
# [2] = in words; remark: listed apart in the source
solubility in dichloromethane [1],solubility in water [1],oral bioavailability [2],SMILES
insoluble in dichloromethane,soluble in water,–,"CC(C)[C@H](N)C(=O)OCCOCn1cnc2c(=O)[nH]c(N)nc21 [Valaciclovir hydrochloride, L-valine, 2-[(2-amino-1,6-dihydro-6-oxo-9H-purin-9-yl)methoxy] ethyl ester, mono hydrochloride]"
–,–,poor oral bioavailability,"Nc1nc2c(ncn2COCCO)c(=O)[nH]1 [acyclovir, Acyclovir]"
